Reference: the NIST ThermoML archive (doi:10.1021/je060271a)

Conditions: Liquid, Vibrating tube method

CCCC(=O)OCC(COC(=O)CCC)(COC(=O)CCC)COC(=O)CCC [pentaerythritol tetrabutyrate]
Conditions	mass density [kg/m3]
303.16 K, 34848 kPa	1063.1
303.17 K, 281.6 kPa	1042.3
303.17 K, 295.5 kPa	1042.4
303.17 K, 308.6 kPa	1042.3
303.17 K, 338.6 kPa	1042.4
303.17 K, 356.5 kPa	1042.4
303.17 K, 372.3 kPa	1042.3
303.17 K, 389.7 kPa	1042.4
303.17 K, 409.5 kPa	1042.4
303.17 K, 424.5 kPa	1042.4
303.17 K, 439.6 kPa	1042.5
303.17 K, 457.1 kPa	1042.5
303.17 K, 488.2 kPa	1042.3
303.17 K, 509.3 kPa	1042.5
303.17 K, 526.8 kPa	1042.6
303.17 K, 1268.4 kPa	1043
303.17 K, 1312 kPa	1043
303.17 K, 1333.8 kPa	1043
303.17 K, 2851.4 kPa	1044.1
303.17 K, 2920.2 kPa	1044.1
303.17 K, 4808.4 kPa	1045.3
303.17 K, 4819 kPa	1045.4
303.17 K, 4825.7 kPa	1045.3
303.17 K, 4829.2 kPa	1045.3
303.17 K, 4830.8 kPa	1045.2
303.17 K, 4832.3 kPa	1045.3
303.17 K, 4834.4 kPa	1045.4
303.17 K, 4836 kPa	1045.4
303.17 K, 4837.7 kPa	1045.4
303.17 K, 4839.2 kPa	1045.4
303.17 K, 4840.6 kPa	1045.4
303.17 K, 4842.7 kPa	1045.3
303.17 K, 6518.3 kPa	1046.5
303.17 K, 6547.8 kPa	1046.4
303.17 K, 6572.5 kPa	1046.5
303.17 K, 7027.7 kPa	1046.8
303.17 K, 7057 kPa	1046.7
303.17 K, 7087.6 kPa	1046.8
303.17 K, 7117.6 kPa	1046.7
303.17 K, 7147.4 kPa	1046.8
303.17 K, 7177.7 kPa	1046.9
303.17 K, 7213.5 kPa	1046.9
303.17 K, 7243.4 kPa	1046.9
303.17 K, 8394.2 kPa	1047.6
303.17 K, 8419.6 kPa	1047.7
303.17 K, 8440.8 kPa	1047.7
303.17 K, 8462 kPa	1047.7
303.17 K, 8485.6 kPa	1047.7
303.17 K, 9218.9 kPa	1048
303.17 K, 34670 kPa	1063
303.17 K, 34730 kPa	1063.1
303.17 K, 34780 kPa	1063.1
303.17 K, 34833 kPa	1063.2
323.14 K, 3021.5 kPa	1026.7
323.14 K, 3045.8 kPa	1026.8
323.14 K, 3074.9 kPa	1026.9
323.14 K, 3099.4 kPa	1026.9
323.14 K, 3124.1 kPa	1027
323.14 K, 3153.6 kPa	1026.9
323.14 K, 3179.3 kPa	1026.9
323.14 K, 3204.7 kPa	1027
323.14 K, 3230.2 kPa	1027
323.14 K, 3262.8 kPa	1027.1
323.14 K, 3289.7 kPa	1027
323.14 K, 3316.7 kPa	1027.2
323.14 K, 3376.7 kPa	1027.2
323.14 K, 3404.8 kPa	1027.3
323.14 K, 3432.9 kPa	1027.2
323.14 K, 3526.4 kPa	1027.4
323.14 K, 3592.6 kPa	1027.3
323.14 K, 3622.8 kPa	1027.3
323.14 K, 3654 kPa	1027.4
323.14 K, 3691.9 kPa	1027.4
323.14 K, 3723.3 kPa	1027.5
323.14 K, 3755.5 kPa	1027.4
323.14 K, 3794.3 kPa	1027.5
323.14 K, 3827.2 kPa	1027.5
323.14 K, 3860.3 kPa	1027.6
323.14 K, 3900.3 kPa	1027.7
323.14 K, 3935 kPa	1027.6
323.14 K, 3969.1 kPa	1027.6
323.14 K, 4004.6 kPa	1027.7
323.14 K, 4047.6 kPa	1027.8
323.14 K, 4083.9 kPa	1027.7
323.14 K, 4121.4 kPa	1027.7
323.14 K, 4159.5 kPa	1027.8
323.14 K, 4204 kPa	1027.8
323.14 K, 4241.5 kPa	1027.9
323.14 K, 4280.5 kPa	1028
323.14 K, 4319.3 kPa	1027.9
323.14 K, 4366.4 kPa	1028
323.14 K, 4406.1 kPa	1028
323.14 K, 4447.6 kPa	1028.1
323.14 K, 4495.9 kPa	1028
323.14 K, 4536.6 kPa	1028.2
323.14 K, 4587.3 kPa	1028.3
323.14 K, 4629.9 kPa	1028.2
323.14 K, 4673.5 kPa	1028.3
323.14 K, 4708.8 kPa	1028.3
323.14 K, 4783.8 kPa	1028.3
323.14 K, 4863.6 kPa	1028.4
323.14 K, 4981.8 kPa	1028.4
323.14 K, 5097.9 kPa	1028.7
323.14 K, 5295.3 kPa	1028.8
323.14 K, 5295.4 kPa	1028.7
323.14 K, 5295.6 kPa	1028.8
323.14 K, 5487.4 kPa	1028.9
323.14 K, 5504.7 kPa	1029
323.14 K, 5543.7 kPa	1028.9
323.14 K, 12307 kPa	1033.8
323.14 K, 12337 kPa	1033.7
323.14 K, 14077 kPa	1034.9
323.14 K, 14107 kPa	1034.9
323.14 K, 14132 kPa	1034.8
323.14 K, 14159 kPa	1034.9
323.14 K, 14184 kPa	1035
323.14 K, 14777 kPa	1035.3
323.14 K, 16272 kPa	1036.3
323.14 K, 16347 kPa	1036.3
323.14 K, 16415 kPa	1036.4
323.14 K, 16456 kPa	1036.4
323.14 K, 16491 kPa	1036.5
323.14 K, 16525 kPa	1036.4
323.14 K, 16567 kPa	1036.5
323.14 K, 16603 kPa	1036.5
323.14 K, 16638 kPa	1036.5
323.14 K, 16681 kPa	1036.6
323.14 K, 16716 kPa	1036.5
323.14 K, 16912 kPa	1036.7
323.14 K, 16948 kPa	1036.8
323.14 K, 16993 kPa	1036.8
323.14 K, 17030 kPa	1036.8
323.14 K, 17069 kPa	1036.8
323.14 K, 17108 kPa	1036.7
323.14 K, 17153 kPa	1036.9
323.14 K, 17191 kPa	1037
323.14 K, 17229 kPa	1036.9
323.14 K, 17267 kPa	1036.9
323.14 K, 17315 kPa	1036.9
323.14 K, 17354 kPa	1036.9
323.14 K, 17394 kPa	1037
323.14 K, 17441 kPa	1037.1
323.14 K, 17476 kPa	1037
323.14 K, 17519 kPa	1037.1
323.14 K, 17554 kPa	1037.2
323.14 K, 17593 kPa	1037
323.14 K, 17628 kPa	1037.1
